Results: PMC5034043 (The Journal of Biological Chemistry, 2016)
Where two headings read alike, the source gives them in different places.

System: T1, synaptosomal proteome
T1 construct: from tissue; host or cells: brain synaptosomes of male C57/B6 mice
Assay type: binding, mouse
Experimental: Synaptosomes were resuspended to 1 mg of protein/ml in HEPES buffer medium (in mM: 140 NaCl, 5 KCl, 5 NaHCO3, 1.2 NaH2PO4, 1 MgCl2, 10 glucose, and 10 HEPES (pH 7.4)). […] The samples were allowed to equilibrate for 5 min before being transferred to a parafilm-sealed 1-mm path length quartz cuvette. The sample was then irradiated for 20 min at a peak bandwidth of 350 nm (Rayonet RPR-3500 lamp) ∼6 cm from the light source. Non-irradiated samples were left in the dark at ambient temperature (22–25 °C) for 20 min. All remaining procedures were conducted with restricted light exposure.
To 750 μg of photolabeled or control synaptosome samples, 40 μl of 10% SDS and 2 μl of 5 mM DTT in water were added. Samples were then vortexed, heated for 10 min at 65 °C, and then briefly cooled. Final concentrations of 150 μM azide-biotin (Click Chemistry Tools), 2 mM tris(3-hydroxypropyltriazolylmethyl)amine (Sigma), 1 mM ascorbic acid (Sigma), and 1 mM CuSO4·5H2O (Sigma) were added to each sample and vortexed vigorously. The samples were left in the dark at ambient temperature (22–25 °C) for 1 h with mild agitation. Directly to each sample 4× volume chilled methanol, 1.5× chilled chloroform, and 3× chilled double distilled H2O were added. Samples were vortexed vigorously and centrifuged at 1,400 × g for 30 min at 4 °C. Both liquid layers were carefully removed, and the protein pellet was washed with 2 ml of 1:1 (v/v) chilled methanol/chloroform. Samples were centrifuged at 3,500 × g for 30 min at 4 °C. Protein pellets were briefly air-dried before further processing.
750 μg of biotin-conjugated protein sample was resuspended in 500 μl of 25 mM NH4HCO3 and 6 M urea in water. Next, 150 μl of 5% Triton X-100 in water, 50 μl of 10% SDS in water, and 1.5 μl of 0.5 M DTT were added. The samples were heated for 15 min at 65 °C. After briefly cooling, 14 μl of 0.5 M iodoacetamide in water was added, and the sample was left in the dark for 45 min. […] The supernatant was diluted to 4 ml with PBS, and 2 ml of PBS containing 100 μl of 50% streptavidin-agarose resin (Thermo Scientific) was added. Biotinylated proteins within the sample were captured over resin overnight at 4 °C with mild agitation. The resin was first washed with 6 ml of 1% SDS in PBS, and then 7 ml of 0.1 M urea in PBS followed by 10 ml of PBS. The resin underwent a final wash with 0.9 ml of 50 mM Tris-HCl and 1 mM CaCl2 in water (pH 8.0) and then resuspended in 200 μl of 50 mM Tris-HCl, 1 mM CaCl2 in water (pH 8.0), and 2 μg of porcine sequencing grade trypsin (Promega). Samples were digested overnight at 37 °C. Samples were then centrifuged at 2,000 × g for 4 min, and digest supernatant was decanted. Beads were washed in 100 μl of PBS centrifuged at 5,200 × g for 5 min, and the wash was combined with the digest supernatant. To the combined sample, trifluoroacetic acid (TFA) was added to 0.4% (v/v) or until pH <2. The sample was desalted with Oasis C18 10-mg columns (Waters) as described previously ([66]). The eluted sample was dried by speed vac and resuspended in 0.1 M HEPES buffer (pH 8.5). […] Appropriate corresponding TMTsixplex^TM-labeled samples were pooled and dried by speed vac. The combined samples were resuspended in 0.5% acetic acid in water and pH-corrected with acetic acid until pH was <2. 40 μg of protein was desalted with C18 stage tips prepared in-house and dried by speed vac.
Samples were resuspended in 10 mM KH2PO4 (pH 2.6), 30% acetonitrile (v/v) in water, and fractionated by off-line strong cation exchange chromatography prior to mass spectrometry (MS) analysis similar to as reported previously ([66]). The full synaptosome proteome control was prepared similarly without TMTsixplex^TM labeling.
All TMT samples were analyzed with three-stage mass spectrometry (MS3) TMTsixplex^TM quantification workflow as described previously ([34]).

[1] = protein A2AGI3 Neuroligin-3 (Nlgn3)
[2] = protein A2AWI7 Endophilin-B2 (Sh3glb2)
[3] = protein D3Z5T2 Armadillo repeat-containing protein 10 (Armc10)
[4] = protein E9Q3V6 Septin-2 (Sept2)
[5] = protein F7C846 Metaxin-1 (Mtx1)
[6] = protein F8WGD9 1-acyl-sn-glycerol-3-phosphate acyltransferase epsilon (Agpat5)
[7] = protein G3UYZ1 Immunoglobulin superfamily member 8 (Igsf8)
[8] = protein G5E829 Plasma membrane calcium-transporting ATPase 1 (Atp2b1)
[9] = protein H3BL44 Calcium-transporting ATPase (Atp2c1)
[10] = protein O09111 NADH dehydrogenase [ubiquinone] 1 beta subcomplex subunit 11, mitochondrial (Ndufb11)
[11] = protein O35114 Lysosome membrane protein 2 (Scarb2)
[12] = protein O35526 Syntaxin-1A (Stx1a)
[13] = protein O35874 Neutral amino acid transporter A (Slc1a4)
[14] = protein O35963 Ras-related protein Rab-33B (Rab33b)
[15] = protein O55022 Membrane-associated progesterone receptor component 1 (Pgrmc1)

Compound: CC(C)c1cccc(C(C)C)c1O [propofol, 2,6-diisopropylphenol, reference compound]
- % propofol protection (D3Z2J6 Tmx2): 70%
- % propofol protection (E9PUL5 Prrt2): 72%
- Log2( Mean 'UV/ UV+propofol') (E9PUL5 Prrt2): 1.75
- % propofol protection (P07724 Alb): 75%
- Log2( Mean 'UV/ UV+propofol') (P07724 Alb): 1.84
- % propofol protection (P12787 Cox5a): 76%
- % propofol protection (P16332 Mut): 72%
- Log2( Mean 'UV/ UV+propofol') (P16332 Mut): 1.79
- Log2( Mean 'UV/ UV+propofol') (P23242 Gja1): 1.15
- Log2( Mean 'UV/ UV+propofol') (P35279 Rab6a): 1.22
- % propofol protection (P51150 Rab7a): 73%
- Log2( Mean 'UV/ UV+propofol') (P51150 Rab7a): 1.72
- % propofol protection (P54071 Idh2): 71%
- Log2( Mean 'UV/ UV+propofol') (P54071 Idh2): 1.75
- Log2( Mean 'UV/ UV+propofol') (P61620 Sec61a1): 1.22
- % propofol protection (P62812 Gabra1): 70%
- Log2( Mean 'UV/ UV+propofol') (P63037 Dnaja1): 1.24
- % propofol protection (P63044 Vamp2): 71%
- % propofol protection (P63213 Gng2): 75%
- Log2( Mean 'UV/ UV+propofol') (P63213 Gng2): 1.98
- % propofol protection (P97445 Cacna1a): 70%
- % propofol protection (Q5SW88 Rab1): 73%
- Log2( Mean 'UV/ UV+propofol') (Q5SW88 Rab1): 1.71
- % propofol protection (Q8BLF1 Nceh1): 71%
- Log2( Mean 'UV/ UV+propofol') (Q8BLF1 Nceh1): 1.72
- % propofol protection (Q8BXV2 Bri3bp): 75%
- Log2( Mean 'UV/ UV+propofol') (Q8BXV2 Bri3bp): 1.93
- % propofol protection (Q8C3X2 Ccdc90b): 75%
- Log2( Mean 'UV/ UV+propofol') (Q8C3X2 Ccdc90b): 1.94
- % propofol protection (Q8K1Z0 Coq9): 73%
- Log2( Mean 'UV/ UV+propofol') (Q8K1Z0 Coq9): 1.79
- % propofol protection (Q8K221 Arfip2): 70%
- % propofol protection (Q8R5J9 Arl6ip5): 75%
- Log2( Mean 'UV/ UV+propofol') (Q8R5J9 Arl6ip5): 1.93
- % propofol protection (Q9CQQ7 Atp5f1): 70%
- % propofol protection (Q9CQS4 Slc25a46): 76%
- Log2( Mean 'UV/ UV+propofol') (Q9CXJ4 Abcb8): 1.18
- % propofol protection (Q9CZS1 Aldh1b1): 75%
- Log2( Mean 'UV/ UV+propofol') (Q9CZS1 Aldh1b1): 1.96
- % propofol protection (Q9D2P8 Mobp): 76%
- Log2( Mean 'UV/ UV+propofol') (Q9D5T0 Atad1): 1.22
- % propofol protection (Q9D6D0 Slc25a27): 75%
- % propofol protection (Q9D6K8 Fundc2): 71%
- Log2( Mean 'UV/ UV+propofol') (Q9D6K8 Fundc2): 1.61
- % propofol protection (Q9DAS9 Gng12): 76%
- % propofol protection (Q9DC70 Ndufs7): 70%
- Log2( Mean 'UV/ UV+propofol') (Q9EP69 Sacm1l): 1.23
- % propofol protection (Q9WV54 Asah1): 72%
- Log2( Mean 'UV/ UV+propofol') (Q9WV54 Asah1): 1.72
- Log2( Mean 'UV/ UV+propofol') (Q9Z2I0 Letm1): 1.22
- % propofol protection (Q99J08 Sec14l2): 72%
- Log2( Mean 'UV/ UV+propofol') (Q99J08 Sec14l2): 1.67
- Log2( Mean 'UV/ UV+propofol') (Q99JY8 Ppap2b): 1.22
- % propofol protection (Q00915 Rbp1): 75%
- Log2( Mean 'UV/ UV+propofol') (Q00915 Rbp1): 1.96
- % propofol protection (Q64133 Maoa): 73%
- Log2( Mean 'UV/ UV+propofol') (Q64133 Maoa): 1.78
- % propofol protection [1]: 58%
- Log2( Mean 'UV/ UV+propofol') [1]: 1.22
- % propofol protection [2]: 56%
- Log2( Mean 'UV/ UV+propofol') [2]: 1.04
- % propofol protection [3]: 55%
- Log2( Mean 'UV/ UV+propofol') [3]: 1.05
- % propofol protection [4]: 54%
- Log2( Mean 'UV/ UV+propofol') [4]: 1.08
- % propofol protection [5]: 55%
- Log2( Mean 'UV/ UV+propofol') [5]: 1.11
- % propofol protection [6]: 57%
- Log2( Mean 'UV/ UV+propofol') [6]: 1.12
- % propofol protection [7]: 52%
- Log2( Mean 'UV/ UV+propofol') [7]: 0.97
- % propofol protection [8]: 55%
- Log2( Mean 'UV/ UV+propofol') [8]: 1.01
- % propofol protection [9]: 51%
- Log2( Mean 'UV/ UV+propofol') [9]: 0.88
- % propofol protection [10]: 56%
- Log2( Mean 'UV/ UV+propofol') [10]: 1.15
- % propofol protection [11]: 53%
- Log2( Mean 'UV/ UV+propofol') [11]: 1.00
- % propofol protection [12]: 57%
- Log2( Mean 'UV/ UV+propofol') [12]: 1.15
- % propofol protection [13]: 53%
- Log2( Mean 'UV/ UV+propofol') [13]: 1.03
- % propofol protection [14]: 55%
- Log2( Mean 'UV/ UV+propofol') [14]: 1.06
- % propofol protection [15]: 51%
- Log2( Mean 'UV/ UV+propofol') [15]: 1.00
